From patent publication US20170304530A1, “INFUSION PREPARATION” (priority 2010, published 2017)
Where a name gives a salt, the structure may show the parent alone.

Test: Remaining amount of each vitamin after 6 months storage at room temperature, measured by HPLC
Format: physicochemical
Conditions: vitamin in Example 3 infusion preparation before mixing, stored at room temperature for 6 months
Method: The infusion preparation (before mixing the first-chamber. infusion and the second-chamber infusion) was stored at room temperature for 6 months. Thereafter, the amount of each vitamin component contained in the first-chamber infusion or the second-chamber infusion was measured using HPLC. […] As is clear from the results, each of the vitamin components can be stably present in the infusion preparation even after 6 months storage.

Row | Remaining rate after 6 months storage (%) | Molecule
1 | 98.7 | Cc1ncc(C[n+]2csc(CCO)c2C)c(N)n1 [Thiamine chloride hydrochloride]
2 | 100.0 | Nc1nc2ncc(CNc3ccc(C(=O)N[C@@H](CCC(=O)O)C(=O)O)cc3)nc2c(=O)[nH]1 [Folic acid]
3 | 100.1 | Cc1cc2nc3c(=O)[nH]c(=O)nc-3n(C[C@H](O)[C@H](O)[C@H](O)COP(=O)(O)O)c2cc1C [Riboflavin sodium phosphate]
4 | 99.9 | O=C1O[C@H]([C@@H](O)CO)C(O)=C1O [Ascorbic acid]
5 | 99.6 | NC(=O)c1cccnc1 [Nicotinamide]

Second part, the molecule before the results:

Row | Molecule | Remaining rate after 6 months storage (%)
6 | Cc1ncc(CO)c(CO)c1O.Cl [Pyridoxine hydrochloride] | 99.3
7 | O=C(O)CCCC[C@@H]1SC[C@@H]2NC(=O)N[C@@H]21 [Biotin] | 97.8
8 | Cyanocobalamin | 103.2
9 | CC1=C(C/C=C(\C)CCC[C@H](C)CCC[C@H](C)CCCC(C)C)C(=O)c2ccccc2C1=O [Phytonadione] | 101.5
10 | CC(=O)Oc1c(C)c(C)c2c(c1C)CCC(C)(CCC[C@H](C)CCC[C@H](C)CCCC(C)C)O2 (stereo partly drawn) [Tocopherol acetate] | 99.0
11 | C=C1CC[C@H](O)C/C1=C/C=C1\CCC[C@]2(C)[C@@H]([C@H](C)CCCC(C)C)CC[C@@H]12 [Cholecalciferol] | 100.5
12 | CC(C)(CO)[C@@H](O)C(=O)NCCCO [Panthenol] | 100.4
